# Results taken from patent US11319298B2 (Merck Sharp & Dohme Corp., priority 2016, dated 2022).
# Target: T1, human M4 muscarinic acetylcholine receptor (Homo sapiens, UniProt P08173)
# T1 construct: expressed in transfected cells; host or cells: CHO-K1
# T1 sequence (P08173 1-479): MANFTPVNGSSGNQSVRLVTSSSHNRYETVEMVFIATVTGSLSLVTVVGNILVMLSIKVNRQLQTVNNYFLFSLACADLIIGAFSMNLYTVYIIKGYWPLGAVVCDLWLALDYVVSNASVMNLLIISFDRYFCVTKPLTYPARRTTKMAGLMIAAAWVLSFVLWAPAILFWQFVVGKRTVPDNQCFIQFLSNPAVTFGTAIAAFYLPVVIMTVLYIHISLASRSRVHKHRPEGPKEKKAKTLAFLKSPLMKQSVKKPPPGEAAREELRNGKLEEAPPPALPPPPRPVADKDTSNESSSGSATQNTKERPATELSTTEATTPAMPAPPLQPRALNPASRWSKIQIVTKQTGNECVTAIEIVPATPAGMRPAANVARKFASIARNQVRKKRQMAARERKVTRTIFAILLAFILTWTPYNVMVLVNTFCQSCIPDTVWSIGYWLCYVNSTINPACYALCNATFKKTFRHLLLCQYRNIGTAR
# Experiment: human FLIPR-based M4 PAM assay, CHO-K1 cells stably transfected with human M4 receptor and chimeric G-protein Gαqi5
# Format: cell-based
# Details: inflection point (IP) of dose response curve; acetylcholine added at 20% of maximum response; CHO-K1 human M4/Gαqi5, FLIPR Tetra
# Experimental: In a typical experiment the M4 muscarinic acetylcholine receptor modulating activity of the compounds of the present invention was determined in accordance with the following experimental method. CHO-K1 cells stably transfected with human M4 receptor and chimeric G-protein Gαqi5 (Coward P, et al., Analytical Biochemistry, 270:242-248 (1999)) are thawed from liquid N2 storage, resuspended in growth medium, plated in black, clear bottom 384 well plates, and incubated 16-20 hours at 37° C., 5% CO2. On the day of assay, growth medium is removed, the cells are washed 2 times with wash buffer, and cells are incubated in dye loading buffer at 37° C., 5% CO2 for ˜1 hour. Following dye loading the cell plates are placed in a FLIPR Tetra instrument and while monitoring dye fluorescence (excitation […]), 10 uL of test substance at increasing concentrations is added, and fluorescence values are recorded for 4 min. Next, 10 uL of acetylcholine is added (final concentration calculated so as to achieve 20% of the maximum acetycholine response), and the fluorescence reading is continued for 3.5 min. In some cases, a third addition of acetylcholine (final concentration calculated to achieve 70% of the maximal acetylcholine response) is performed. The resulting dose response curves are fit to a 4 parameter logistic equation and the final result is determined as the inflection point (IP) of the curve
# CHO-K1 cells stably transfected with human M4 receptor and chimeric G-protein Gαqi5 are thawed from liquid N2 storage, resuspended in growth medium, plated in black, clear bottom 384 well plates, and incubated 16-20 hours at 37° C., 5% CO2.
# On the day of assay, growth medium is removed, the cells are washed 2 times with wash buffer, and cells are incubated in dye loading buffer at 37° C., 5% CO2 for ˜1 h. Following dye loading the cell plates are placed in a FLIPR Tetra instrument and while monitoring dye fluorescence ([…]), 10 uL of test substance at increasing concentrations is added, and fluorescence values are recorded for 4 min. Next, 10 uL of acetylcholine is added (final concentration calculated so as to achieve 20% of the maximum acetycholine response), and the fluorescence reading is continued for 3.5 min. In some cases, a third addition of acetylcholine (final concentration calculated to achieve 70% of the maximal acetylcholine response) is performed.
row,EC50 [nM],SMILES
1,770,"COc1ccc(OC2CCN(c3nc(C(=O)NC4CCCc5cnccc54)nc(Cl)c3C)CC2)cn1 (stereo not shown) [Example 214, 4-chloro-6-(4-((6-methoxypyridin-3-yl)oxy)piperidin-1-yl)-5-methyl-N-(5,6,7,8-tetrahydroisoquinolin-5-yl)pyrimidine-2-carboxamide]"
2,194,"COc1ccc(OC2CCN(c3nnc(C(=O)NC4CNC(=O)C4)cc3C)CC2)cn1 (stereo not shown) [Example 145, 6-{4-[(6-methoxypyridin-3-yl)oxy]piperidin-1-yl}-5-methyl-N-(5-oxopyrrolidin-3-yl)pyridazine-3-carboxamide]"
3,173,"COc1ccc(OC2CCN(c3nnc(C(=O)NC4CCc5cccnc5C4)cc3C)CC2)cn1 (stereo not shown) [Example 136, 6-{4-[(6-methoxypyridin-3-yl)oxy]piperidin-1-yl}-5-methyl-N-(5,6,7,8-tetrahydroquinolin-7-yl)pyridazine-3-carboxamide]"
4,231,"COc1ccc(OC2CCN(c3nc(S(C)(=O)=O)nc(Cl)c3C)CC2)cn1 [Example 226, 4-Chloro-6-(4-((6-methoxypyridin-3-yl)oxy)piperidin-1-yl)-5-methyl-2-(methylsulfonyl)pyrimidine]"
5,61,"Cc1cc(C(=O)NCc2ccncc2)nnc1N1CC[C@@H](Oc2cccc(C#N)c2)[C@@H](F)C1 [Example 115, 6-[(3S,4R)-4-(3-cyanophenoxy)-3-fluoropiperidin-1-yl]-5-methyl-N-(pyridin-4-ylmethyl)pyridazine-3-carboxamide]"
6,413,"COc1ccc(OC2CCN(c3ncnc(N(C)CCc4ccccn4)c3C)CC2)cn1 [Example 240, 6-(4-((6-methoxypyridin-3-yl)oxy)piperidin-1-yl)-N,5-dimethyl-N-(2-(pyridin-2-yl)ethyl)pyrimidin-4-amine]"
7,155,"COc1ncc(OC2CCN(c3nc(C)ncc3C)CC2)cc1F [Example 74, 4-(4-((5-fluoro-6-methoxypyridin-3-yl)oxy)piperidin-1-yl)-2,5-dimethylpyrimidine]"
8,254,"Cc1cc(C(=O)N[C@@H]2CCc3ncccc3C2)nnc1N1CCC(Oc2cccc(C#N)c2)CC1 [Example 130B, (R)-6-[4-(3-cyanophenoxy)piperidin-1-yl]-5-methyl-N-(5,6,7,8-tetrahydroquinolin-6-yl)pyridazine-3-carboxamide]"
9,99,"Cc1ncc(C)c(N2CCC(Oc3ccc(OCCO)nc3)CC2)n1 [Example 64, 2-((5-((1-(2,5-dimethylpyrimidin-4-yl)piperidin-4-yl)oxy)pyridin-2-yl)oxy)ethan-1-ol]"
10,140,"Cc1ncc(C)c(N2CCC(Oc3ccc(OCC(C)(C)N)nc3)CC2)n1 [Example 72, 1-((5-((1-(2,5-dimethylpyrimidin-4-yl)piperidin-4-yl)oxy)pyridin-2-yl)oxy)-2-methylpropan-2-amine]"
11,302,"COc1ccc(OC2CCN(c3nnc(C(=O)NC4CC4)cc3C)CC2)cn1 [Example 161, N-cyclopropyl-6-{4-[(6-methoxypyridin-3-yl)oxy]piperidin-1-yl}-5-methylpyridazine-3-carboxamide]"
12,1010,"COc1ccc(OC2CCN(c3nnc(C(=O)N[C@@H]4CCc5cc(F)ccc5C4)cc3C)CC2)cn1 [Example 184B, (R)-N-(6-fluoro-1,2,3,4-tetrahydronaphthalen-2-yl)-6-{4-[(6-methoxypyridin-3-yl)oxy]piperidin-1-yl}-5-methylpyridazine-3-carboxamide]"
13,22,"Cc1cc(C(=O)NCc2cnsc2)nnc1N1CCC(Oc2cccc(C#N)c2)CC1 [Example 192, 6-[4-(3-cyanophenoxy)piperidin-1-yl]-N-(isothiazol-4-ylmethyl)-5-methypyridazine-3-carboxamide]"
14,508,"Cc1cc(C(=O)NC2CCc3cnccc3C2)nnc1N1CCC(Oc2cccc(C#N)c2)CC1 (stereo not shown) [Example 172, 6-[4-(3-cyanophenoxy)piperidin-1-yl]-5-methyl-N-(5,6,7,8-tetrahydroisoquinolin-6-yl)pyridazine-3-carboxamide]"
15,592,"COc1ccc(OC2CCN(c3nc(C(=O)NC45CC(C4)C5)nc(Cl)c3C)CC2)cn1 [Example 210, N-(bicyclo[1.1.1]pentan-1-yl)-4-chloro-6-(4-((6-methoxypyridin-3-yl)oxy)piperidin-1-yl)-5-methylpyrimidine-2-carboxamide]"
16,552,"COc1ccc(OC2CCN(c3nnc(C(=O)N[C@H]4CCc5ccccc54)cc3C)CC2)cn1 [Example 173, N-[(1S)-2,3-dihydro-1H-inden-1-yl]-6-{4-[(6-methoxypyridin-3-yl)oxy]piperidin-1-yl}-5-methylpyridazine-3-carboxamide]"
17,20,"Cc1c(Cl)nc(CO)nc1N1CC[C@@H](Oc2ccc3[nH]ncc3c2)[C@@H](F)C1 [Example 90, (4-((3S,4R)-4-((1H-indazol-5-yl)oxy)-3-fluoropiperidin-1-yl)-6-chloro-5-methylpyrimidin-2-yl)methanol]"
18,243,"COc1ccc(O[C@@H]2CCN(c3nnc(C(=O)N[C@@H]4CCc5ncccc5C4)cc3C)C[C@@H]2F)cn1 [Example 138B, 6-((3S,4R)-3-fluoro-4-((6-methoxypyridin-3-yl)oxy)piperidin-1-yl)-5-methyl-N-((R)-5,6,7,8-tetrahydroquinolin-6-yl)pyridazine-3-carboxamide]"
19,533,"COc1ccc(OC2CCN(c3nc(C(=O)NNC(C)C)nc(Cl)c3C)CC2)cn1 [Example 209, 4-chloro-N′-isopropyl-6-(4-((6-methoxypyridin-3-yl)oxy)piperidin-1-yl)-5-methylpyrimidine-2-carbohydrazide]"
20,110,"COc1ccc(O[C@@H]2CCN(c3ncnc(Cl)c3C)C[C@@H]2F)cc1 (relative stereo) [Example 13, 4-chloro-6-((cis)-3-fluoro-4-(4-methoxyphenoxy)piperidin-1-yl)-5-methylpyrimidine]"
21,2670,"COC(=O)Cc1c(Cl)ncnc1N1CCC(Oc2ccc(OC)cc2)CC1 [Example 17, methyl 2-(4-chloro-6-(4-(4-methoxyphenoxy)piperidin-1-yl)pyrimidin-5-yl)acetate]"
22,1040,"COc1ccc(OC2CCN(c3nnc(C(=O)NC4(C)CCCC4)cc3C)CC2)cn1 [Example 185, 6-{4-[(6-methoxypyridin-3-yl)oxy]piperidin-1-yl}-5-methyl-N-(1-methylcyclopentyl)pyridazine-3-carboxamide]"
23,158,"Cc1cc(C(=O)NCc2ccncc2)nnc1N1CCC(Oc2ccc3c(c2)C(=O)N(C)C3)CC1 [Example 135, 5-methyl-6-{4-[(2-methyl-3-oxo-2,3-dihydro-1H-isoindol-5-yl)oxy]piperidin-1-yl}-N-(pyridin-4-ylmethyl)pyridazine-3-carboxamide]"
24,29,"Cc1c(Cl)nc(CO)nc1N1CCC(Oc2ccc3c(c2)OCCO3)CC1 [Example 92, (4-chloro-6-(4-((2,3-dihydrobenzo[b][1,4]dioxin-6-yl)oxy)piperidin-1-yl)-5-methylpyrimidin-2-yl)methanol]"
25,99,"COc1ccc(OC2CCN(c3nnc(C(=O)NCc4ccncc4C)cc3C)CC2)cn1 [Example 121, 6-{4-[(6-methoxypyridin-3-yl)oxy]piperidin-1-yl}-5-methyl-N-[(3-methylpyridin-4-yl)methyl]pyridazine-3-carboxamide]"
26,259,Cc1cc(C(=O)NCc2ccncc2)nnc1N1CCC(OCC2CC2)CC1 [Example 152]
27,1150,"COc1ccc(OC2CCN(c3nc(SC)ncc3C#N)CC2)cn1 [Example 85, 4-(4-((6-methoxypyridin-3-yl)oxy)piperidin-1-yl)-2-(methylthio)pyrimidine-5-carbonitrile]"

row,SMILES,EC50 [nM]
1,"Cc1nc(Cl)c(C)c(N2CCC(Oc3ccc4c(cnn4C)c3)CC2)n1 [Example 56, 5-((1-(6-chloro-2,5-dimethypyrimidin-4-yl)piperidin-4-yl)oxy)-1-methyl-1H-indazole]",60
